Experimental data reported in patent US6630495B1, “Fungicides” (priority 1999, dated 2003).

SMILES | melting point [°C]
O=[N+]([O-])c1ccccc1CC(=NO)NCc1ncc(C(F)(F)F)cc1Cl | 122 to 126
CC(C#N)(NC(=O)c1c(Cl)cccc1Cl)c1ncc(C(F)(F)F)cc1Cl (centres unmarked) [Compound 110, N-[1-(3-Chloro-5-trifluoromethyl-2-pyridyl)-1-cyanoethyl]-2,6-dichlorobenzamide] | 166
